{"source": "patent US20130085106A1", "about": "“METHODS AND FORMULATIONS FOR OXYTOCIN TREATMENT OF SUBSTANCE USE, PSYCHIATRIC AND OTHER DISORDERS” (THE UNIVERSITY OF NORTH CAROLINA AT CHAPEL HILL, priority 2010, published 2013)", "key": {"[1]": {"details": "Burbach et al., Eur. J. Pharmacol. 94: 125-131 (1983); cited from earlier work"}, "[2]": {"tested_on": "alcohol dependent patients", "assay": "Double-blind, placebo controlled trial of twice daily intranasal oxytocin for alcohol withdrawal (Example 2)", "type": "in vivo, human", "source_text": "This is a double-blind, placebo controlled comparison of the efficacy of twice daily intranasal administration of oxytocin and placebo (saline) in reducing alcohol withdrawal symptoms, the number of bouts of withdrawal during which symptoms are of sufficient magnitude requiring lorazepam treatment (see definitions below) and the amount of lorazepam required to resolve withdrawal bouts. Treatment group assignment are random within each sex. Subjects are patients admitted to UNC Hospitals or the UNC CTRC for medical detoxification. Each treatment group is composed of up to 40 subjects. The study statistician constructs a randomization plan to randomize 80 subjects to 2 groups of 40 subjects each with a blocksize of 4. This is a permuted blocksize as this is a blind study.\nInformed consent is obtained the morning after admission to the UNC Hospitals medical units or before the outpatient screening evaluation before admission to the UNC CTRC. After consent is obtained, subjects are randomly assigned to a treatment group (oxytocin or placebo). Prior to receiving their first intranasal treatment, an ECG is obtained and blood drawn to obtain serum for assay of cytokine and allopregnanolone concentrations. Subjects also rate their symptoms using the Alcohol Withdrawal Symptom Checklist (AWSC, Pittman et al., Alcohol Clin. Exp. Res. 31: 612-618 (2007)) prior to receiving their first test dose. These procedures are done/overseen by research nurses or physicians. Subjects usually receive their first intranasal test dose between 1000 and 1200 hours, which consists of 6 insufflations of SYNTOCINON® Spray (approximately 24 IU) or placebo, with each insufflation given 30 seconds apart and alternating between nostrils. Test doses taken again at 1700 hr later that day (Admission Day 1) and at 0900 and 1700 hr on Admission Days 2 and 3. Oxytocin test treatments are administered from 5 ml intranasal spray vials designed to deliver 0.1 ml metered volume per insufflation. The placebo treatments are administered from 60 ml intranasal spray vials (each containing 30 ml of solution) also designed to deliver 0.1 ml metered volume per insufflation. Vials containing oxytocin and placebo spray are blind labeled by the UNC Investigational Drug Service. Research nurses or physicians oversee subject self-administration of all intranasal test doses. After enrollment on Admission day 1 and in the morning on Admission days 2 and 3, subjects are given multiple copies of the AWSC questionnaire and requested to complete one each time the unit nurses do CIWA ratings. These questionnaires are retrieved by research staff the following morning. Shortly after the morning test dose on Admission days 2 and 3, subjects complete the Alcohol Craving Visual Analog Scales (ACVAS), the Penn Alcohol Craving Scale (PACS), and the Profile of Mood States (McNair et al., (1971) EDITS manual for the profile of mood states. San Diego, Calif. Educational and Industrial Testing Service). In addition, a consumption diary is administered and given to the subject to quantify the amount of alcohol participants have been consuming prior to admission in the study. On Days 2 and 3, research nurses also draw (and subsequently process) blood serum samples to assay cytokine and allopregnanolone concentrations shortly after the morning test dose. Additional blood is drawn after the morning test dose on admission day 2 to obtain serum for tests to be run (magnesium, Cl, Ca, Na, K, BUN, creatinine, and GGT). Another ECG is also obtained shortly after the morning test treatment on Admission day 2. Research staff retrieves on a daily basis CIWA ratings and vital sign measurements obtained on each subject from their electronic medical record.\nIn all subjects, lorazepam doses are administered PO or IV (if subjects cannot take medication PO) whenever CIWA ratings are ≧12. CIWA ratings are obtained 1 hr after the initial dose of lorazepam and another dose administered if CIWA ratings ≧10. […]"}, "[3]": {"tested_on": "subjects with schizophrenia", "assay": "Expanded two-week intranasal oxytocin study in schizophrenia, 25 subjects (Example 8)", "type": "in vivo, human", "details": "for Brüne 2nd false belief, M / Brüne 3nd false belief, M / Brüne deception, M / PANSS general score, M / PANSS negative score, M / PANSS positive score, M / PANSS social items mean (suspiciousness, hostility, social withdrawal passive/active, uncooperativeness), M / PANSS total score, M / Paranoia Scale, M / Trustworthiness task (ratings of untrustworthy faces), M: N = 14", "source_text": "(§1) This was a randomized, double blind, placebo-controlled 2-week treatment trial. Screening of each subject included a review of psychiatric and medical history, physical examination, an ECG, and blood and urine collection for standard laboratory tests. Within 1 week after screening, baseline social cognition measures were obtained followed by psychiatric ratings. Daily intranasal treatments were initiated after baseline assessments. Social cognition measures and psychiatric ratings were repeated beginning 50 minutes after the AM dose of study medication on treatment day 14. The social cognition instruments were the Brüne Theory of Mind Picture Stories Task (Brüne, (2003) Social cognition and behaviour in schizophrenia. In Brüne, Ribbert, Schiefenhövel (eds.) The social brain-evolution and pathology. John Wiley & Sons; Chichester, pp. 277-313) and the Trustworthiness Task (Adolphs et al., Nature 393: 470-474 (1998)). Psychiatric measures included the Positive and Negative Symptom Scale (PANSS) (Kay et al., Schizophr. Bull. 13: 261-276 (1987))) and the Paranoia Scale (Fenigstein & Vanable, J. Pers. Soc. Psych. 62: 129-138 (1992))). The first 10 subjects were studied as inpatients on a clinical research unit and the last 10 subjects were studied in an outpatient research clinic. Blood and urine laboratory tests, ECGs and body weights were obtained at screening and treatment day 14 in all subjects and also on treatment days 3 and 7 in inpatients.\n(§2) Subjects remained on their pre-study medication regimen and doses throughout the treatment trial. They self-administered intranasal study drug twice daily; before breakfast and before dinner. Each dose consisted of six 0.1 ml insufflations (alternating between the left and right nostril) of oxytocin spray containing approximately 24 international units of oxytocin (SYNTOCINON® Spray, Novartis) or placebo. Outpatient compliance with test treatments was monitored by weighing spray vials before they were dispensed and after the morning dose on treatment day 14.\nWe have expanded our double blind, placebo-controlled pilot study described in Example 7 to include 25 subjects with schizophrenia in which we compared the effects of 14 days of twice daily intranasal oxytocin (24 IU/dose, N=14) vs. placebo (N=11) administration on PANSS (Positive and Negative Symptom Scale) total and PANSS item scores, subject self-ratings on the Paranoia Scale and performance on social cognition tests (the Brüne Theory of Mind Picture Stories Task and the Trustworthiness Task). As in the smaller study, all subjects' symptoms and psychotropic medication regimens were stable for ≧1 month prior to the treatment trial. Medication doses remained the same during the study period.\nBecause of our interest in oxytocin effects on social function in schizophrenia, we focused our statistical analysis on an a priori subset of PANSS items: P6 (suspiciousness/persecution [paranoia]), P7 (hostility), N4 (passive/apathetic social withdrawal), G8 (uncooperativeness) and G16 (active social avoidance). These items were used as inclusion criteria for this study (see description in Example 7). Values on these items are highly correlated in our sample (Cronbach's alpha=0.84)."}, "[4]": {"tested_on": "patients with paranoid or undifferentiated schizophrenia", "assay": "Randomized, double blind, placebo-controlled 2-week intranasal oxytocin trial in schizophrenia (Example 7)", "type": "in vivo, human", "source_text": "Twenty-three subjects were initially enrolled; 2 dropped out before randomization to treatment and 1 dropped out early because they developed an upper respiratory infection; the remaining 20 completed the protocol and constitute our study sample. Inclusion criteria were: 18-55 years of age, DSM-IV diagnosis of paranoid or undifferentiated schizophrenia ≧1 year, PANSS total score ≧60, PANSS suspiciousness/persecutory item score ≧4 or 3 on this item and ≧3 on at least one other social behavior-relevant PANSS item (hostility, passive/apathetic social withdrawal, uncooperativeness, active social withdrawal), treatment with one or more standard antipsychotic medications, stability of medication doses and symptoms ≧1 month.\nas §1, §2\nAll dependent variables were examined for normality and skewness prior to analyses. We compared oxytocin and placebo group means using an unpaired t test for the following baseline variables: demographic, psychiatric history and diagnosis, inpatient versus outpatient status, social cognition and psychiatric measures. We performed a paired t test within each treatment group examining changes from baseline to two weeks on the following variables: biological (laboratory test values, vital signs), social cognition measures (Brüne Task, Trustworthiness Task), and psychiatric measures (PANSS total and subscales, Paranoia Scale). To compare the treatment groups over time on social cognition and psychiatric variables, we used analysis of covariance controlling for the baseline measure of the dependent variable."}, "[5]": {"details": "ANCOVA controlling for baseline, 14-day treatment"}}, "note": "Ends that are not written are not given here.", "data": [{"molecule": "oxytocin fragment 4-9: biologically active fragment of oxytocin, reported to be more potent than the full-length molecule (QNCPLG; ends and bridges not checked; UniProt P01178 23-28, looked up, fragment)", "values": [{"measurement": "potency relative to the full-length molecule", "setting": "[1]", "result": "more potent than the full-length molecule"}]}, {"molecule": "CC[C@H](C)[C@@H]1NC(=O)[C@H](Cc2ccc(O)cc2)NC(=O)[C@@H](N)CSSC[C@@H](C(=O)N2CCC[C@H]2C(=O)N[C@@H](CC(C)C)C(=O)NCC(N)=O)NC(=O)[C@H](CC(N)=O)NC(=O)[C@H](CCC(N)=O)NC1=O", "note": "[Oxytocin, oxytocin]", "values": [{"measurement": "adverse events", "setting": "[2]; 3 days of protocol, all 10 subjects", "result": "no unexpected adverse events"}, {"measurement": "Total lorazepam (mg) required to control withdrawal symptoms, Mean", "setting": "[2]; 3 days of protocol, intranasal approx. 24 IU twice daily, N=6", "result": 2.33, "unit": "mg"}, {"measurement": "Mean CIWA Day 1", "setting": "[2]; Day 1, intranasal approx. 24 IU twice daily, N=6", "result": 2.40}, {"measurement": "Mean AWSC Day 1", "setting": "[2]; Day 1, self-rating, N=6", "result": 6.17}, {"measurement": "Mean ACVAS Day 2", "setting": "[2]; Day 2, 100 mm Alcohol Craving Visual Analog Scale, N=6", "result": 33.83}, {"measurement": "Mean CIWA Day 2", "setting": "[2]; Day 2, N=6", "result": 0.81}, {"measurement": "Mean PACS Day 2", "setting": "[2]; Day 2, Penn Alcohol Craving Scale, N=6", "result": 13.33}, {"measurement": "Mean AWSC Day 2", "setting": "[2]; Day 2, self-rating, N=6", "result": 5.40}, {"measurement": "Mean ACVAS Day 3", "setting": "[2]; Day 3, 100 mm Alcohol Craving Visual Analog Scale, N=6", "result": 11.23}, {"measurement": "Mean CIWA Day 3", "setting": "[2]; Day 3, N=6", "result": 1.52}, {"measurement": "Mean PACS Day 3", "setting": "[2]; Day 3, Penn Alcohol Craving Scale, N=6", "result": 9.33}, {"measurement": "Mean AWSC Day 3", "setting": "[2]; Day 3, self-rating, N=6", "result": 3.78}, {"measurement": "subjects that required no lorazepam treatment at all", "setting": "[2]; oxytocin treatment group, 3-day detoxification", "result": "4 of the 6"}, {"measurement": "declines in PANSS positive symptom subscale scores compared to the Placebo group", "setting": "[3]; ANOVA, F=3.10, p=0.0923", "result": "trends toward significantly greater declines"}, {"measurement": "declines in PANSS social items mean scores compared to the Placebo group", "setting": "[3]; ANOVA, F=3.15, p=0.0898", "result": "trends toward significantly greater declines"}, {"measurement": "decline in PANSS total score compared to the Placebo group", "setting": "[3]; ANOVA, F=4.29, p=0.05", "result": "significantly greater decline"}, {"measurement": "Brüne 2nd false belief, M", "setting": "[3]; Baseline", "result": 1.93}, {"measurement": "Brüne 3nd false belief, M", "setting": "[3]; Baseline", "result": 1.93}, {"measurement": "Brüne deception, M", "setting": "[3]; Baseline", "result": 2.43}, {"measurement": "PANSS general score, M", "setting": "[3]; Baseline", "result": 38.21}, {"measurement": "PANSS negative score, M", "setting": "[3]; Baseline", "result": 20.36}, {"measurement": "PANSS positive score, M", "setting": "[3]; Baseline", "result": 19.79}, {"measurement": "PANSS social items mean (suspiciousness, hostility, social withdrawal passive/active, uncooperativeness), M", "setting": "[3]; Baseline", "result": 2.91}, {"measurement": "PANSS total score, M", "setting": "[3]; Baseline", "result": 79.00}, {"measurement": "Paranoia Scale, M", "setting": "[3]; Baseline", "result": 48.00}, {"measurement": "Trustworthiness task (ratings of untrustworthy faces), M", "setting": "[3]; Baseline", "result": "−15.71"}, {"measurement": "PANSS total score, M", "setting": "[3]; Tx Day 14, 24 IU/dose intranasal twice daily", "result": 69.21}, {"measurement": "Brüne 2nd false belief, M", "setting": "[3]; Tx Day 14", "result": 2.29}, {"measurement": "Brüne 3nd false belief, M", "setting": "[3]; Tx Day 14", "result": 2.43}, {"measurement": "Brüne deception, M", "setting": "[3]; Tx Day 14", "result": 2.86}, {"measurement": "PANSS general score, M", "setting": "[3]; Tx Day 14", "result": 34.07}, {"measurement": "PANSS negative score, M", "setting": "[3]; Tx Day 14", "result": 18.00}, {"measurement": "PANSS positive score, M", "setting": "[3]; Tx Day 14", "result": 17.14}, {"measurement": "PANSS social items mean (suspiciousness, hostility, social withdrawal passive/active, uncooperativeness), M", "setting": "[3]; Tx Day 14", "result": 2.39}, {"measurement": "Paranoia Scale, M", "setting": "[3]; Tx Day 14", "result": 45.00}, {"measurement": "Trustworthiness task (ratings of untrustworthy faces), M", "setting": "[3]; Tx Day 14", "result": "−10.36"}, {"measurement": "PANSS general subscale scores, LS mean", "setting": "[4]; [5]", "result": 34.34}, {"measurement": "PANSS total scores, Least squared (LS) mean", "setting": "[4]; [5]", "result": 70.56}, {"measurement": "group differences in change over the treatment period for other PANSS or social cognition variables", "setting": "[4]; ANCOVA, oxytocin vs placebo", "result": "no group differences"}, {"measurement": "decline in PANSS general subscale scores compared to placebo", "setting": "[4]; ANCOVA, F=3.78, p=0.069", "result": "trend toward a significantly greater decline"}, {"measurement": "decline in PANSS total scores compared to the placebo group", "setting": "[4]; ANCOVA, F=4.60, p=0.047", "result": "significantly greater decline"}, {"measurement": "change in other Brüne Task measures (second order belief, third order false belief, recognition of cheating)", "setting": "[4]; baseline to treatment day 14", "result": "no changes that approached significance"}]}]}
